Experimental data reported in patent US11530229B2, “Cyano cyclobutyl compounds for CBL-B inhibition and uses thereof” (Nurix Therapeutics, Inc., priority 2019, dated 2022).
Where two headings read alike, the source gives them in different places.

Assays:
Cbl-b = Cbl-b (Homo sapiens (Human), UniProt Q13191); assay: Cbl-b displacement assay (Cbl-b inhibition assay), Biological Example 1; assay type: binding
Procedure: Candidate compounds were evaluated for their ability to bind and inhibit Cbl-b, an E3 ubiquitin-protein ligase, as evidenced by their ability to displace a fluorophore-labeled probe (Example 59) bound to Cbl-b.
The ability of candidate compounds to displace a known inhibitor and thereby inhibit Cbl-b activity was measured by monitoring the interaction of Cbl-b with a fluorophore-labeled probe in the presence of the candidate compound. A truncated variant of Cbl-b (UniProt number Q13191; SEQ ID NO:1) containing an Avitag at its N-terminus was co-expressed with BirA biotin ligase and purified using a standard protocol (see Dou et al., Nature Structural and Molecular Biology, 8: 982-987, 2013; Avidity LLC).
Cbl-b Amino Acid Residues 36-427:
Fluorescently-labeled inhibitor probe was synthesized and tagged with BODIPY FL (Example 59). Cbl-b displacement assays were performed in a 384-well plate at room temperature in a 10 μL reaction volume by pre-incubating 0.5 nM Cbl-b or 0.125 nM Cbl-b (final concentration, indicated as “High” and “Low”, respectively) in an assay buffer containing 20 mM HEPES pH 7.5, 150 mM NaCl, 0.01% Triton X-100, 0.01% BSA and 0.5 mM TCEP in the presence of a candidate compound in 1% DMSO (final concentration) for 1 hour. After incubation in the presence of the candidate compound, the plate was incubated for an additional 1 hour in the presence of an approximate EC40 binding saturation consisting of 150 nM fluorescently-labeled inhibitor probe and 2 nM Streptavidin-Terbium (Cisbio) (final concentrations). Following the 1 hour incubation, the plates were read for TR-FRET signal at […] using an Envision plate reader (Perkin Elmer).

[1] = test system: primary human total T-cells; assay: T-cell activation, IL-2 secretion, Biological Example 2; assay type: cell-based; conditions: 48 hours, fold change over baseline; for fold induction at 0.3 µM: 0.3 μM inhibitor; for fold induction at 1 µM: 1 μM inhibitor; for fold induction at 3 µM: 3 μM inhibitor
[2] = test system: primary human total T-cells; assay: T-cell activation, CD25 surface staining, Biological Example 2; assay type: cell-based; conditions: 48 hours, fold change over baseline; for fold induction at 0.3 µM: 0.3 μM inhibitor; for fold induction at 1 µM: 1 μM inhibitor; for fold induction at 3 µM: 3 μM inhibitor
[3] = 0.125 nM Cbl-b final concentration (Low), read-out: Cbl-b activity IC50 (Low)
[4] = anti-CD3 and anti-CD28 co-stimulation
[5] = anti-CD3 and anti-CD28 co-stimulation, read-out: IL-2 secretion CD3/CD28 1 μM
[6] = anti-CD3 stimulation alone, read-out: IL-2 secretion CD3 1 μM
[7] = anti-CD3 and anti-CD28 co-stimulation, read-out: CD25 staining CD3/CD28 1 μM
[8] = anti-CD3 stimulation alone, read-out: CD25 staining CD3 1 μM
[9] = read-out: IC50 values in the Cbl-b inhibition assay of Biological Example 1

Cbl-b, sequence (Q13191 36-427): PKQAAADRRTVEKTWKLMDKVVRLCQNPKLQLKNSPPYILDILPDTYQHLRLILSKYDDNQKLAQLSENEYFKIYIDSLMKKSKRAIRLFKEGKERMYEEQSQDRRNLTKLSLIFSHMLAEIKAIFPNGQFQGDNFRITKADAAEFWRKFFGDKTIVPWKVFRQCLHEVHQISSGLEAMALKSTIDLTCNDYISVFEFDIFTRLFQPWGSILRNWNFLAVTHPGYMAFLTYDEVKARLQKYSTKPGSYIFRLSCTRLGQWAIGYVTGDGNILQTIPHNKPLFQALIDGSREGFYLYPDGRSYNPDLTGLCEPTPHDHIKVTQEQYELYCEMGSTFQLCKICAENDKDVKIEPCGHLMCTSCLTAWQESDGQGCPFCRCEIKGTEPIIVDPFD

| SMILES | IC50 (Cbl-b; [3]) [nM] | fold induction at 0.3 µM [1, 4] | fold induction at 1 µM [1, 5] | fold induction at 1 µM [1, 6] | fold induction at 3 µM ([1]; anti-CD3 stimulation alone) | fold induction at 0.3 µM [2, 4] | fold induction at 1 µM [2, 7] | fold induction at 1 µM [2, 8] | fold induction at 3 µM ([2]; anti-CD3 stimulation alone) | IC50 (Cbl-b; [9]) [nM] |
| --- | --- | --- | --- | --- | --- | --- | --- | --- | --- | --- |
| CC1CN(Cc2cc3c(c(C(F)(F)F)c2)CN(c2cccc([C@]4(Cc5nncn5C)C[C@@H](C#N)C4)c2)C3=O)CCCO1 (stereo partly drawn) [Compound 33, (1r,3r)-3-(3-(6-((2-methyl-1,4-oxazepan-4-yl)methyl)-1-oxo-4-(trifluoromethyl)isoindolin-2-yl)phenyl)-3-((4-methyl-4H-1,2,4-triazol-3-yl)methyl)cyclobutane-1-carbonitrile] | 2 to 5 | ≤ 15 | ≤ 15 | 0.4 to 0.85 | 0.4 to 0.85 | ≤ 1.24 | ≤ 1.24 | ≤ 1 | ≤ 1 | – |
| C[C@@H]1CN(Cc2cc3c(c(C(F)(F)F)c2)CN(c2cccc([C@]4(Cc5nncn5C)C[C@@H](CC#N)C4)c2)C3=O)CCC1(F)F [Compound 51, [(1r,3r)-3-[3-(6-{[(3R)-4,4-difluoro-3-methylpiperidin-1-yl]methyl}-1-oxo-4-(trifluoromethyl)-3H-isoindol-2-yl)phenyl]-3-[(4-methyl-1,2,4-triazol-3-yl)methyl]cyclobutyl]acetonitrile] | ≥ 20 | – | – | – | – | – | – | – | – | ≥ 20 |
| Cc1cc(C(=O)Nc2cccc([C@]3(Cc4nncn4C)C[C@](C)(C#N)C3)c2)nc(C2CC2)n1 [Compound 9] | 5 to 20 | ≤ 15 | ≤ 15 | < 0.4 | < 0.4 | ≤ 1.24 | 1.24 to 1.39 | ≤ 1 | 1 to 1.15 | 5 to 20 |
| CN(Cc1cc2c(c(C(F)(F)F)c1)CN(c1cccc([C@]3(Cc4nncn4C)C[C@@H](C#N)C3)c1)C2=O)C1CCC(F)(F)C1 (stereo partly drawn) [Compound 32, (1r,3r)-3-(3-(6-(((3,3-difluorocyclopentyl)(methyl)amino)methyl)-1-oxo-4-(trifluoromethyl)isoindolin-2-yl)phenyl)-3-((4-methyl-4H-1,2,4-triazol-3-yl)methyl)cyclobutane-1-carbonitrile] | 2 to 5 | > 20 | > 20 | > 0.85 | > 0.85 | > 1.39 | > 1.39 | > 1.15 | > 1.15 | – |
| Cn1cnnc1C[C@]1(c2cccc(N3Cc4c(cc(CNC5COC(C)(C)C5)cc4C(F)(F)F)C3=O)c2)C[C@H](C#N)C1 (stereo partly drawn) [Compound 24, (1r,3r)-3-(3-(6-(((5,5-dimethyltetrahydrofuran-3-yl)amino)methyl)-1-oxo-4-(trifluoromethyl)isoindolin-2-yl)phenyl)-3-((4-methyl-4H-1,2,4-triazol-3-yl)methyl)cyclobutane-1-carbonitrile] | 2 to 5 | ≤ 15 | 15 to 20 | 0.4 to 0.85 | 0.4 to 0.85 | 1.24 to 1.39 | 1.24 to 1.39 | > 1.15 | 1 to 1.15 | 2 to 5 |
| Cn1cnnc1C[C@]1(c2cccc(N3Cc4c(cc(CNC5CCC(F)(F)C5)nc4C4CC4)C3=O)c2)C[C@H](C#N)C1 (stereo partly drawn) [Compound 39, (1r,3r)-3-(3-(4-cyclopropyl-6-(((3,3-difluorocyclopentyl)amino)methyl)-1-oxo-1,3-dihydro-2H-pyrrolo[3,4-c]pyridin-2-yl)phenyl)-3-((4-methyl-4H-1,2,4-triazol-3-yl)methyl)cyclobutane-1-carbonitrile] | 1 to 2 | ≤ 15 | ≤ 15 | < 0.4 | < 0.4 | 1.24 to 1.39 | ≤ 1.24 | ≤ 1 | ≤ 1 | 1 to 2 |
| Cn1cnnc1C[C@]1(c2cccc(N3Cc4c(cc(CN5CCC[C@H](C(F)(F)F)C5)cc4C(F)(F)F)C3=O)c2)C[C@H](C#N)C1 [Compound 14, (1R,3r)-3-((4-methyl-4H-1,2,4-triazol-3-yl)methyl)-3-(3-(1-oxo-4-(trifluoromethyl)-6-(((S)-3-(trifluoromethyl)piperidin-1-yl)methyl)isoindolin-2-yl)phenyl)cyclobutane-1-carbonitrile] | 2 to 5 | 15 to 20 | 15 to 20 | 0.4 to 0.85 | 0.4 to 0.85 | ≤ 1.24 | ≤ 1.24 | ≤ 1 | ≤ 1 | – |
| Cn1cnnc1C[C@]1(c2cccc(N3Cc4c(cc(CNC5CCC(C)(C)C5)cc4C(F)(F)F)C3=O)c2)C[C@H](C#N)C1 (stereo partly drawn) [Compound 31, (1r,3r)-3-(3-(6-(((3,3-dimethylcyclopentyl)amino)methyl)-1-oxo-4-(trifluoromethyl)isoindolin-2-yl)phenyl)-3-((4-methyl-4H-1,2,4-triazol-3-yl)methyl)cyclobutane-1-carbonitrile] | < 1 | > 20 | > 20 | > 0.85 | > 0.85 | > 1.39 | > 1.39 | > 1.15 | > 1.15 | < 1 |
| C[C@@H]1CN(Cc2cc3c(c(C4CC4)n2)CN(c2cccc([C@]4(Cc5nncn5C)C[C@@H](C#N)C4)c2)C3=O)CCC1(F)F [Compound 42, (1R,3r)-3-(3-(4-cyclopropyl-6-(((R)-4,4-difluoro-3-methylpiperidin-1-yl)methyl)-1-oxo-1,3-dihydro-2H-pyrrolo[3,4-c]pyridin-2-yl)phenyl)-3-((4-methyl-4H-1,2,4-triazol-3-yl)methyl)cyclobutane-1-carbonitrile] | 2 to 5 | 15 to 20 | > 20 | > 0.85 | > 0.85 | ≤ 1.24 | ≤ 1.24 | 1 to 1.15 | 1 to 1.15 | – |
| Cc1cc(C(=O)Nc2cccc([C@]3(Cc4nncn4C)C[C@@](C)(C#N)C3)c2)nc(C2CC2)n1 [Compound 8, N-(3-((1r,3r)-3-cyano-3-methyl-1-((4-methyl-4H-1,2,4-triazol-3-yl)methyl)cyclobutyl)phenyl)-2-cyclopropyl-6-methylpyrimidine-4-carboxamide] | ≥ 20 | – | – | – | – | – | – | – | – | ≥ 20 |
| C[C@@H]1CN(Cc2cc3c(c(C(F)(F)F)c2)CN(c2cccc([C@]4(Cc5nncn5C)C[C@H](CC#N)C4)c2)C3=O)CCC1(F)F [Compound 52, ((1S,3s)-3-(3-(6-(((R)-4,4-difluoro-3-methylpiperidin-1-yl)methyl)-1-oxo-4-(trifluoromethyl)isoindolin-2-yl)phenyl)-3-((4-methyl-4H-1,2,4-triazol-3-yl)methyl)cyclobutyl)acetonitrile] | 5 to 20 | – | – | – | – | – | – | – | – | 5 to 20 |
| C[C@@H]1CN(C(C)(C)c2cc3c(c(C(F)(F)F)c2)CN(c2cccc([C@]4(Cc5nncn5C)C[C@@H](C#N)C4)c2)C3=O)CCO1 [Compound 58, (1R,3r)-3-((4-methyl-4H-1,2,4-triazol-3-yl)methyl)-3-(3-(6-(2-((R)-2-methylmorpholino)propan-2-yl)-1-oxo-4-(trifluoromethyl)isoindolin-2-yl)phenyl)cyclobutane-1-carbonitrile] | 2 to 5 | – | – | – | – | – | – | – | – | 2 to 5 |
